Results taken from ChEMBL document CHEMBL1201862, “PubChem BioAssay data set” (2004).
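Cultured in 96-well plates, cells were exposed to test compound for 48 hours across five concentrations. GI50: concentration for 50% inhibition of growth.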 The source made the active and inactive calls. Rule as the data show it: active = GI50 up to about 1.1 µM and inactive = higher.

Columns and labels:
Assay in all cases: DTP human tumour cell line panel, 48 h
RPMI-8226 = test system: RPMI-8226
EKVX = test system: EKVX
RXF 631 = test system: RXF 631
HOP-18 = test system: HOP-18
IGROV-1 = test system: IGROV-1
SK-OV-3 = test system: SK-OV-3
A549 = test system: A549
NCI-H226 = test system: NCI-H226
RXF 393 = test system: RXF 393
HL-60 = test system: HL-60
DMS-114 = test system: DMS-114
SF-295 = test system: SF-295
TK-10 = test system: TK-10
HCC 2998 = test system: HCC 2998
OVCAR-8 = test system: OVCAR-8
HOP-92 = test system: HOP-92
OVCAR-5 = test system: OVCAR-5
M14 = test system: M14
Malme-3M = test system: Malme-3M
UO-31 = test system: UO-31
SK-MEL-5 = test system: SK-MEL-5
786-0 = test system: 786-0
CAKI-1 = test system: CAKI-1
KM12 = test system: KM12
XF498 = test system: XF498
NCI-H460 = test system: NCI-H460
U-251 = test system: U-251
SK-MEL-2 = test system: SK-MEL-2
UACC-62 = test system: UACC-62
SF-268 = test system: SF-268
DLD-1 = test system: DLD-1
UACC-257 = test system: UACC-257
HOP-62 = test system: HOP-62
KM-20L2 = test system: KM-20L2
ACHN = test system: ACHN
K562 = test system: K562
SN12C = test system: SN12C
OVCAR-4 = test system: OVCAR-4
HCT-15 = test system: HCT-15
COLO 205 = test system: COLO 205
NCI-H522 = test system: NCI-H522
LOX IMVI = test system: LOX IMVI
SNB-19 = test system: SNB-19
A498 = test system: A498
HCT-116 = test system: HCT-116
SNB-75 = test system: SNB-75
MOLT-4 = test system: MOLT-4
SW-620 = test system: SW-620
NCI-H23 = test system: NCI-H23
OVCAR-3 = test system: OVCAR-3
SF-539 = test system: SF-539
LXFL 529 = test system: LXFL 529
HT-29 = test system: HT-29
DMS-273 = test system: DMS-273
SNB-78 = test system: SNB-78
CCRF-CEM = test system: CCRF-CEM
SK-MEL-28 = test system: SK-MEL-28
SR = test system: SR
M19-MEL = test system: M19-MEL

In the case of O=C1C=Cc2ncccc2C1=O, the GI50 (RPMI-8226) was 24.1 µM (inactive), the GI50 (EKVX) was 23.5 µM (inactive) and the GI50 (RXF 631) was 21.4 µM (inactive). The GI50 (HOP-18) was > 52 µM (inactive), the GI50 (IGROV-1) was 32.2 µM (inactive) and the GI50 (SK-OV-3) was 37.9 µM (inactive). For the same compound, the GI50 (A549) was 30.8 µM (inactive), the GI50 (NCI-H226) was > 44.9 µM (inactive) and the GI50 (RXF 393) was 20 µM (inactive). For the same compound, the GI50 (HL-60) was 5.22 µM (inactive), the GI50 (DMS-114) was 16.5 µM (inactive) and the GI50 (SF-295) was 17.6 µM (inactive). The GI50 (TK-10) was > 44.9 µM (inactive), the GI50 (HCC 2998) was > 48.1 µM (inactive) and the GI50 (OVCAR-8) was 16.3 µM (inactive). For the same compound, the GI50 (HOP-92) was 21.1 µM (inactive), the GI50 (OVCAR-5) was > 44.2 µM (inactive) and the GI50 (M14) was 18.1 µM (inactive). For the same compound, the GI50 (Malme-3M) was 29.9 µM (inactive), the GI50 (UO-31) was 30.5 µM (inactive) and the GI50 (SK-MEL-5) was 14.9 µM (inactive). The GI50 (786-0) was 15.7 µM (inactive), the GI50 (CAKI-1) was 21.1 µM (inactive) and the GI50 (KM12) was 33.7 µM (inactive). The GI50 (XF498) was 24.6 µM (inactive), the GI50 (NCI-H460) was 20 µM (inactive) and the GI50 (U-251) was 24.4 µM (inactive). The GI50 (SK-MEL-2) was 18.5 µM (inactive), the GI50 (UACC-62) was 16.8 µM (inactive) and the GI50 (SF-268) was 34.4 µM (inactive). For the same compound, the GI50 (DLD-1) was 18.7 µM (inactive), the GI50 (UACC-257) was 20 µM (inactive) and the GI50 (HOP-62) was > 54.8 µM (inactive). The GI50 (KM-20L2) was > 45.9 µM (inactive), the GI50 (ACHN) was 20.8 µM (inactive) and the GI50 (K562) was 7.71 µM (inactive). The GI50 (SN12C) was 21.2 µM (inactive), the GI50 (OVCAR-4) was 5.77 µM (inactive) and the GI50 (HCT-15) was 18.1 µM. The GI50 (COLO 205) was 18 µM (inactive), the GI50 (NCI-H522) was 15.7 µM (inactive) and the GI50 (LOX IMVI) was 13.5 µM (inactive). The GI50 (SNB-19) was > 78.3 µM (inactive), the GI50 (A498) was > 54 µM (inactive) and the GI50 (HCT-116) was 16.9 µM (inactive). The GI50 (SNB-75) was 21.3 µM (inactive), the GI50 (MOLT-4) was 2.45 µM (inactive) and the GI50 (SW-620) was 15.4 µM (inactive). The GI50 (NCI-H23) was 20.3 µM (inactive), the GI50 (OVCAR-3) was 23.9 µM (inactive) and the GI50 (SF-539) was 21.1 µM (inactive). For the same compound, the GI50 (LXFL 529) was 16.5 µM (inactive), the GI50 (HT-29) was 22.2 µM (inactive) and the GI50 (DMS-273) was 17 µM (inactive). For the same compound, the GI50 (SNB-78) was 31 µM (inactive), the GI50 (CCRF-CEM) was 7.05 µM (inactive) and the GI50 (SK-MEL-28) was 24.4 µM (inactive).
Cc1ccccc1NC(=O)CC(=O)n1nc(-c2ccccc2)c(/N=N/c2ccc([N+](=O)[O-])cc2)c1-c1ccccc1 was tested, and the GI50 (RPMI-8226) was 19.2 µM (inactive), the GI50 (EKVX) was 20.2 µM (inactive) and the GI50 (RXF 631) was 12.4 µM (inactive). The GI50 (HOP-18) was 16.5 µM (inactive), the GI50 (IGROV-1) was 28.1 µM (inactive) and the GI50 (SK-OV-3) was 16.7 µM (inactive). The GI50 (A549) was 16.1 µM (inactive), the GI50 (NCI-H226) was 14.1 µM (inactive) and the GI50 (RXF 393) was 19.1 µM (inactive). The GI50 (HL-60) was 19.9 µM (inactive), the GI50 (DMS-114) was 10.6 µM (inactive) and the GI50 (SF-295) was 17.4 µM (inactive). For the same compound, the GI50 (TK-10) was 37.1 µM (inactive), the GI50 (HCC 2998) was 17.9 µM (inactive) and the GI50 (OVCAR-8) was 31.4 µM (inactive). The GI50 (HOP-92) was 11.4 µM (inactive), the GI50 (OVCAR-5) was 32 µM (inactive) and the GI50 (M14) was 16.7 µM (inactive). For the same compound, the GI50 (Malme-3M) was 23.8 µM (inactive), the GI50 (UO-31) was 7.03 µM (inactive) and the GI50 (SK-MEL-5) was 13 µM (inactive). The GI50 (786-0) was 22.1 µM (inactive), the GI50 (CAKI-1) was 5.87 µM (inactive) and the GI50 (KM12) was 16.7 µM (inactive). The GI50 (XF498) was 21.8 µM (inactive), the GI50 (NCI-H460) was 31.5 µM (inactive) and the GI50 (U-251) was 14.1 µM (inactive). The GI50 (SK-MEL-2) was 25.3 µM (inactive), the GI50 (UACC-62) was 13.1 µM (inactive) and the GI50 (SF-268) was 21.2 µM (inactive). The GI50 (DLD-1) was 18.7 µM (inactive), the GI50 (UACC-257) was 19.9 µM (inactive) and the GI50 (HOP-62) was 16 µM (inactive). For the same compound, the GI50 (KM-20L2) was 16.7 µM (inactive), the GI50 (ACHN) was 11.2 µM (inactive) and the GI50 (K562) was 12.3 µM (inactive). For the same compound, the GI50 (SN12C) was 22.1 µM (inactive), the GI50 (OVCAR-4) was 23.6 µM (inactive) and the GI50 (COLO 205) was 16.8 µM (inactive). The GI50 (NCI-H522) was 18.9 µM (inactive), the GI50 (LOX IMVI) was 20.6 µM (inactive) and the GI50 (SNB-19) was 25.6 µM (inactive). The GI50 (HCT-116) was 14.4 µM (inactive), the GI50 (SNB-75) was 19.2 µM (inactive) and the GI50 (MOLT-4) was 16.1 µM (inactive). The GI50 (SW-620) was 30.5 µM (inactive), the GI50 (NCI-H23) was 21.3 µM (inactive) and the GI50 (OVCAR-3) was 15.7 µM (inactive). The GI50 (SF-539) was 19.9 µM (inactive), the GI50 (LXFL 529) was 24.9 µM (inactive) and the GI50 (HT-29) was 8.34 µM (inactive). The GI50 (DMS-273) was 21 µM (inactive), the GI50 (SR) was 25.1 µM (inactive) and the GI50 (SNB-78) was 26.9 µM (inactive). The GI50 (CCRF-CEM) was 28.4 µM (inactive) and the GI50 (SK-MEL-28) was 27.3 µM (inactive).
For C=CCCCN1CCCC(C)C1=S (stereo not drawn), the GI50 (RPMI-8226) was > 100 µM (inactive), the GI50 (EKVX) was > 100 µM (inactive) and the GI50 (RXF 631) was > 100 µM (inactive). The GI50 (HOP-18) was > 100 µM (inactive), the GI50 (IGROV-1) was > 100 µM (inactive) and the GI50 (SK-OV-3) was > 100 µM (inactive). For the same compound, the GI50 (A549) was > 100 µM (inactive), the GI50 (NCI-H226) was > 100 µM (inactive) and the GI50 (RXF 393) was > 100 µM (inactive). The GI50 (HL-60) was > 100 µM (inactive), the GI50 (DMS-114) was > 100 µM (inactive) and the GI50 (SF-295) was > 100 µM (inactive). The GI50 (TK-10) was > 100 µM (inactive), the GI50 (HCC 2998) was > 100 µM (inactive) and the GI50 (OVCAR-8) was > 100 µM (inactive). The GI50 (HOP-92) was > 100 µM (inactive), the GI50 (OVCAR-5) was > 100 µM (inactive) and the GI50 (M14) was > 100 µM (inactive). For the same compound, the GI50 (Malme-3M) was > 100 µM (inactive), the GI50 (UO-31) was > 100 µM (inactive) and the GI50 (SK-MEL-5) was > 100 µM (inactive). For the same compound, the GI50 (786-0) was > 100 µM (inactive), the GI50 (KM12) was > 100 µM (inactive) and the GI50 (XF498) was > 100 µM (inactive). For the same compound, the GI50 (NCI-H460) was > 100 µM (inactive), the GI50 (U-251) was > 100 µM (inactive) and the GI50 (SK-MEL-2) was > 100 µM (inactive). The GI50 (UACC-62) was > 100 µM (inactive), the GI50 (SF-268) was > 100 µM (inactive) and the GI50 (DLD-1) was > 100 µM (inactive). The GI50 (UACC-257) was > 100 µM (inactive), the GI50 (HOP-62) was > 100 µM (inactive) and the GI50 (KM-20L2) was > 100 µM (inactive). The GI50 (ACHN) was > 100 µM (inactive), the GI50 (K562) was > 100 µM (inactive) and the GI50 (OVCAR-4) was > 100 µM (inactive). For the same compound, the GI50 (HCT-15) was > 100 µM, the GI50 (COLO 205) was > 100 µM (inactive) and the GI50 (NCI-H522) was > 100 µM (inactive). For the same compound, the GI50 (LOX IMVI) was > 100 µM (inactive), the GI50 (SNB-19) was > 100 µM (inactive) and the GI50 (A498) was > 100 µM (inactive). The GI50 (M19-MEL) was > 100 µM (inactive), the GI50 (HCT-116) was > 100 µM (inactive) and the GI50 (SNB-75) was 52 µM (inactive). For the same compound, the GI50 (MOLT-4) was > 100 µM (inactive), the GI50 (SW-620) was > 100 µM (inactive) and the GI50 (NCI-H23) was > 100 µM (inactive). The GI50 (OVCAR-3) was > 100 µM (inactive), the GI50 (SF-539) was > 100 µM (inactive) and the GI50 (HT-29) was > 100 µM (inactive). The GI50 (DMS-273) was > 100 µM (inactive), the GI50 (SR) was > 100 µM (inactive) and the GI50 (CCRF-CEM) was > 100 µM (inactive). For the same compound, the GI50 (SK-MEL-28) was > 100 µM (inactive).
